Several values for one entry are separate records, joined by “and”; a condition that tells them apart may be missing. Equal entries are not always repeated. Where two headings read alike, the source gives them in different places.
Assays:
HIF-1α = assay: Hypoxia induction with CoCl2, Western blot; type: cell-based, human; conditions: A375 cell line, 100 μM CoCl2 in DMEM, 1 and 2 h
Method: The cells were seeded into 12-well plates at a concentration of 10^5 cells/well. After the cells had reached full morphology (approx. 48 h), the medium was replaced with fresh medium containing cobalt(II) chloride (CoCl2) at a concentration of 100 μM, followed by incubation at 37 °C for 1 and 2 h. In the control sample, fresh medium without CoCl2 was added. After the incubation, cells were kept on ice and washed with ice-cold 1x PBS. After removing the 1x PBS, the cells were lysed with ice-cold radio-immunoprecipitation assay buffer (RIPA) buffer (50 mM Tris, 150 mM NaCl, 0.5% sodium deoxycholate, and 1% Triton X-100) and then incubated on ice for 30 min. The cells were centrifuged at 14,000 rpm at 4 °C for 10 min to separate the DNA in pellets and proteins in the supernatant. The supernatant was collected, and 4× Laemmli sample buffer (50 mM Tris pH 6.8, 10% glycerol, 2% SDS, 2% 2-mercaptoethanol, and 0.04% bromophenol blue) was added. The samples were heated at 95 °C for 10 min before separation on 10% polyacrylamide gels (SDS-PAGE). All gels were transferred to nitrocellulose membranes using the semi-dry transfer system at 100 V (Trans-Blot Turbo RTA Transfer kit, Bio Rad, Hercules, CA, USA, #1704270). […]

HDF = assay: Photocytotoxicity, MTT assay; type: cell-based, human; conditions: Homo sapiens, HDF, light or radiation study
Method: (§1) For (photo)cytotoxicity assays, stock solutions of porphyrins were prepared in DMSO and dissolved in DMEM to the final concentrations. The porphyrin incubation time was 6h. Irradiation of the cells was with red light (λ = 643 nm) for 30 min (light dose, 3.6 J/cm^2). Nonirradiated cells were used to test the dark toxicity. All measurements were performed in three individual experiments, and the results are shown as the proliferation (%) of the cells and were calculated as IC50 values.
(§2) The cytotoxicity of (oxidopyridyl)porphyrins was assessed by an MTT assay on the HDF, MeWo and A375 cell lines after 6 h of incubation with porphyrins, without irradiation, or after 30 min of irradiation with red light (λ = 643 nm), and under conditions of normoxia or hypoxia. To induce hypoxia, 100 µM of CoCl2 was added at least two hours before the porphyrins. […] Oxygen is also one of the substrates for the activity of prolyl hydroxylases; therefore, in both cases, the result is the blockage of hydroxylation of HIF-1α and, consequently, its increase and stabilisation, which, in the case of CoCl2-induced hypoxia, can be maintained for several hours.

MeWo = assay: Photocytotoxicity, MTT assay; type: cell-based, human; conditions: for IC50: Homo sapiens, MeWo, light or radiation study
Method: as §1, §2

A375 = assay: Photocytotoxicity, MTT assay; type: cell-based, human; conditions: for IC50: Homo sapiens, A-375, light or radiation study
Method: as §1, §2

[1] = cited from earlier work; for ΦISC: N-methyl porphyrin analogues; for τT (lifetime of 3PS*): N-methylated counterparts
[2] = system: HDF, MeWo and A375 cell lines; assay: (Photo)cytotoxicity MTT assay, statements made for all cell lines; type: cell-based, human
Method: as §1, §2

[3] = N-methylated analogue; cited from earlier work
[4] = UV-Vis absorption spectra in MeOH; type: physicochemical
Method: (§3) The absorption spectra of (oxidopyridyl)porphyrins were recorded in HPLC grade MeOH on a Cary UV 60 (Agilent Technologies, Santa Clara, CA, USA), in a wavelength range of 300–700 nm. The fluorescence spectra in HPLC grade MeOH were recorded on a Cary Eclipse (Agilent Technologies) in a wavelength range of 500–800 nm after excitation at the Soret band wavelength (λ ~ 420 nm). The slits of the spectrometer were set to a bandpass of 5 nm for the excitation and 5 nm for the emission. To calculate the fluorescence quantum yields, the measurements were conducted on an FS5 Edinburgh Instruments spectrometer. Prior to taking the measurements, the solutions were purged with high-purity N2 for at least 15 min. The absorbance of the solutions was set to A < 0.1 at 405 nm and 550 nm, which settings were used for the excitation process. Emission was recorded from 550 to 800 nm, with slits set to the bandpass corresponding to 2 nm for the excitation, and 3 nm for the emission. Fluorescence quantum yield (ΦFL) was calculated in comparison to the tetraphenylporphyrin (TPP; ΦFL = 0.11 [23]) as a standard, according to Equation (S1) and following an equation previously described elsewhere.

[5] = Laser flash photolysis (LFP), triplet excited state properties; type: physicochemical; conditions: MeOH
Method: Laser flash photolysis (LFP) was performed using an LP980 transient absorption spectrometer (Edinburgh Instruments) equipped with a continuous beam (or pulse mode) Xenon lamp passing through the sample. A nanosecond Nd:YAG laser (Quantel, Q-smart 450, 5 ns pulse duration, 10 Hz, excitation wavelength 355 nm) was then used to excite the sample perpendicular to the lamp beam. The laser beam energy was adjusted to below 5 mJ. The ground state absorbance of the porphyrins in MeOH was adjusted to 0.20–0.25 at 355 nm (the laser excitation wavelength) and the solutions were purged with high-purity N2 for at least 15 min prior to taking the measurements. The samples were prepared for kq determination in an air atmosphere that was N2-purged for 15 min and O2-purged for 15 min before the measurements were taken. The ground state absorption spectra of the samples were also recorded after purging the sample with N2 or O2, and after transient absorption (TAS) measurements were taken to track the differences in every step of the measurement process to ensure that no photoproducts were formed. All measurements were performed at 25 °C in 1 cm quartz cuvettes. Laser flash photolysis was used to measure the kinetics of triplet state depopulation (τT) and triplet-triplet absorption spectra, and to calculate the intersystem crossing quantum yield (ΦISC) and quenching rate constants of triplet excited states by molecular oxygen (kq). To calculate ΦISC, the first step was the calculation of the molar absorption coefficient of the triplet state using the singlet depletion method, completing the first step according to Equation (S2). The ΦISC values were estimated by using a comparative method with TPP (ΦISC = 0.87 in toluene) as the standard. The ΦISC was calculated according to Equation (S3). Triplet excited state lifetimes were determined by fitting the triplet decays to the equation for the mixed first- and second-order decay, as previously described, and the quenching rate constant of a triplet excited state by molecular oxygen was calculated using the Stern–Volmer equation (Equation (S4)).

[6] = Fluorescence spectra and fluorescence quantum yield in MeOH; type: physicochemical
Method: as §3

[7] = Fluorescence decay by time-correlated single-photon counting (TC-SPC); type: physicochemical; conditions: MeOH, N2, λex 405 nm
Method: Time-correlated single-photon counting (TC-SPC) was used to obtain information about fluorescence decays. All measurements were performed on an FS5 Edinburgh Instruments device with a pulsed laser at 405 nm wavelength, which was used for the excitation process (pulse duration 60 ps). Fluorescence signals were monitored at 660 nm over 1023 channels, with a time increment of ≈49 ps/channel. Porphyrins were dissolved in MeOH (HPLC grade), with the absorbance adjusted to 0.1 a.u. at the excitation wavelength, and the solution was degassed with N2 for 15 min before the measurements were taken. All the decays were collected until they reached 3000 counts in the peak channel. A scattering solution, a silica gel suspension in H2O, was used to obtain the instrument response function (IRF). The histograms were analysed using a nonlinear least-squares deconvolution method via the software implemented with the instrument.

[8] = red light 643 nm 30 min, CoCl2-induced hypoxia
[9] = red light 643 nm 30 min, normoxia

## [Cl-].[Cl-].[Co+2] [CoCl2, Cobalt(II) chloride]
HIF-1α
  HIF-1α protein level (Western blot, normalised to β-actin): accumulation of HIF-1α

## CCCCCCCCCCCCCCCCCC(=O)Nc1ccc(-c2c3nc(c(-c4ccc[n+](C)c4)c4ccc([nH]4)c(-c4ccc[n+](C)c4)c4nc(c(-c5ccc[n+](C)c5)c5ccc2[nH]5)C=C4)C=C3)cc1.[Cl-].[Cl-].[Cl-] [TMPyP3-C17H35, 5-(4-Octadecanamidophenyl)-10,15,20-Tris(N-Methylpyridinium-3-Yl)Porphyrin Trichloride]
HDF; read-out: IC50 HDF CoCl2
  IC50: 0.46 ± 0.14 µM
HDF; read-out: IC50 HDF No CoCl2
  IC50: 0.33 ± 0.03 µM
MeWo; read-out: IC50 MeWo CoCl2
  IC50: 0.47 ± 0.02 µM
MeWo; read-out: IC50 MeWo No CoCl2
  IC50: 0.33 ± 0.04 µM
MeWo; [8]
  SI (IC50 (HDF) / IC50 (melanoma cells)) MeWo 100 µM CoCl2: 1.0
MeWo; [9]
  SI (IC50 (HDF) / IC50 (melanoma cells)) MeWo No CoCl2: 1.0
A375; read-out: IC50 A375 CoCl2
  IC50: 0.23 ± 0.07 µM
A375; read-out: IC50 A375 No CoCl2
  IC50: 0.15 ± 0.08 µM
A375; [8]
  SI (IC50 (HDF) / IC50 (melanoma cells)) A375 100 µM CoCl2: 2.0
A375; [9]
  SI (IC50 (HDF) / IC50 (melanoma cells)) A375 No CoCl2: 2.2
[1]
  ΦISC: 0.38
  τT (lifetime of 3PS*): 0.74 ms
[2]; Homo sapiens, light or radiation study, read-out: IC50 in all the tested cells
  IC50: ≤ 1000 nM
[3]
  ΦFL (fluorescence quantum yield): 0.105

## CC(=O)Nc1ccc(-c2c3nc(c(-c4ccc[n+]([O-])c4)c4ccc([nH]4)c(-c4ccc[n+]([O-])c4)c4nc(c(-c5ccc[n+]([O-])c5)c5ccc2[nH]5)C=C4)C=C3)cc1 [TOPyP3-CH3, 5-(4-Acetamidophenyl)-10,15,20-tris(1-oxido-3-pyridyl)porphyrin]
HDF; 6 h incubation, red light 643 nm 30 min, 3.6 J/cm^2, 100 μM CoCl2 at least 2 h before porphyrin, read-out: IC50 HDF CoCl2
  IC50: > 100 µM
HDF; 6 h incubation, red light 643 nm 30 min, 3.6 J/cm^2, normoxia, read-out: IC50 HDF No CoCl2
  IC50: > 100 µM
MeWo; 6 h incubation, red light 643 nm 30 min, 3.6 J/cm^2, 100 μM CoCl2 at least 2 h before porphyrin, read-out: IC50 MeWo CoCl2
  IC50: > 100 µM
MeWo; 6 h incubation, red light 643 nm 30 min, 3.6 J/cm^2, normoxia, read-out: IC50 MeWo No CoCl2
  IC50: > 100 µM
A375; 6 h incubation, red light 643 nm 30 min, 3.6 J/cm^2, 100 μM CoCl2 at least 2 h before porphyrin, read-out: IC50 A375 CoCl2
  IC50: > 100 µM
A375; 6 h incubation, red light 643 nm 30 min, 3.6 J/cm^2, normoxia, read-out: IC50 A375 No CoCl2
  IC50: > 100 µM
[4]
  ε Qx (0-0): 1900 M⁻¹ cm⁻¹
  ε Qx (1-0): 5800 M⁻¹ cm⁻¹
  ε Qy (0-0): 5200 M⁻¹ cm⁻¹
  ε Qy (1-0): 18200 M⁻¹ cm⁻¹
  ε Soret (B): 346900 M⁻¹ cm⁻¹
  λabs Qx (0-0): 645 nm
  λabs Qx (1-0): 588 nm
  λabs Qy (0-0): 545 nm
  λabs Qy (1-0): 510 nm
  λabs Soret (B): 416 nm
[5]
  τT (lifetime of 3PS*): 1.1 ms
[5]; N2-purged, 25 °C
  τT (lifetime of the triplet excited state): 1100 ± 200 μs
[5]; Stern–Volmer
  kq (O2) (quenching rate constant of the triplet excited state by O2): 1.3e+09 M⁻¹ s⁻¹
[5]; comparative method with TPP, estimated
  ΦISC (quantum yield of intersystem crossing): 0.66
[5]; singlet depletion method
  εT-T (molar absorption coefficient of the triplet state): 47 000 M^−1cm^−1
[2]; 1 µM, irradiation 643 nm, normoxia or CoCl2-induced hypoxia
  phototoxicity / reduction of proliferation at 1 µM: did not appear to reduce the proliferation
[6]; N2-purged, TPP as reference
  ΦFL (fluorescence quantum yield): 0.050 ± 0.002
[6]; excitation at Soret band
  λFL Q(0,0): 648 nm
  λFL Q(0,1): 713 nm
[7]
  contribution of τ1 (% of the decay): 2%
  contribution of τ2 (% of the decay): 98%
  τFL, longer decay time τ2: 8.62 ± 0.02 ns and 8.62 ns
  τFL, short decay time τ1: 0.82 ± 0.08 ns and 0.82 ns

## CC(=O)Nc1ccc(-c2c3nc(c(-c4ccc[n+](C)c4)c4ccc([nH]4)c(-c4ccc[n+](C)c4)c4nc(c(-c5ccc[n+](C)c5)c5ccc2[nH]5)C=C4)C=C3)cc1.[Cl-].[Cl-].[Cl-] [TMPyP3-CH3, 5-(4-Acetamidophenyl)-10,15,20-Tris(N-Methylpyridinium-3-Yl)Porphyrin Trichloride]
HDF; read-out: IC50 HDF CoCl2
  IC50: > 100 µM
HDF; read-out: IC50 HDF No CoCl2
  IC50: > 100 µM
MeWo; read-out: IC50 MeWo CoCl2
  IC50: > 100 µM
MeWo; read-out: IC50 MeWo No CoCl2
  IC50: > 100 µM
A375; read-out: IC50 A375 CoCl2
  IC50: > 100 µM
A375; read-out: IC50 A375 No CoCl2
  IC50: > 100 µM
[1]
  ΦISC: 0.34
  τT (lifetime of 3PS*): 0.77 ms
[3]
  ΦFL (fluorescence quantum yield): 0.072

— paper PMC12382614, “(Oxidopyridyl)Porphyrins of Different Lipophilicity: Photophysical Properties, ROS Production and Phototoxicity on Melanoma Cells Under CoCl2-Induced Hypoxia” (Antioxidants, 2025)
